Experimental findings from patent publication US6451797B1, “Muscarinic antagonists” (priority 1998, dated 2002) are described below.

Structures can show the parent of a compound that is named as a salt.

As usually defined, the melting point is the temperature, or range, at which the solid turns liquid.

The compound `C[C@@H]1CN(C2CCN(C(=O)c3cccc4c(F)cc(F)cc34)CC2)CCN1[C@@H](C)c1ccc(S(=O)(=O)c2ccc3c(c2)OCO3)nc1` returned a melting point of 172 to 174 °C. Then `C[C@@H]1CN(C2CCN(C(=O)c3cccc(Cl)c3N)CC2)CCN1[C@@H](C)c1ccc(S(=O)(=O)c2ccc3c(c2)OCO3)nc1`, with 184 to 186 °C. `C[C@@H]1CN(C2CCN(C(=O)c3ccccc3N)CC2)CCN1[C@@H](C)c1ccc(S(=O)(=O)c2ccc3c(c2)OCO3)nc1` came in with a melting point of 187 to 188 °C. For `C[C@@H]1CN(C2CCN(C(=O)c3cccc4cccnc34)CC2)CCN1[C@@H](C)c1ccc(S(=O)(=O)c2ccc3c(c2)OCO3)nc1` the value was 174 °C; for `Cc1cccc(C)c1C(=O)N1CCC(N2CCN([C@@H](C)c3ccc(S(=O)(=O)c4ccc5c(c4)OCO5)nc3)[C@H](C)C2)CC1`, 165 °C; for `CNc1ccccc1C(=O)N1CCC(N2CCN(Cc3ccc(S(=O)(=O)c4cccc(C)c4)nc3)[C@H](C)C2)CC1` (as salt: HCl), 144 to 148 °C (dec.).
